Experimental data as given in patent US10091998B2, “Tetrazolinone compound and use thereof” (SUMITOMO CHEMICAL COMPANY, LIMITED, priority 2013, dated 2018).

Test system: cucumber powdery mildew fungus (Sphaerotheca fuliginea, a QoI-resistant strain, cytochrome b position 143 glycine to alanine)
Type: in vivo
Conditions: 500 ppm spray on cucumber (SAGAMI HANJIRO); investigated 8 days after inoculation

Cn1nnn(-c2ccccc2OCc2ccccc2)c1=O [1-[2-(phenylmethoxy)phenyl]-4-methyl-1,4-dihydrotetrazol-5-one]
area of lesion on the treated plant relative to that on an untreated plant: ≥ 70%
